# In ChEMBL document CHEMBL1141903, “Synthesis and evaluation of CCR5 antagonists containing modified 4-piperidinyl-2-phenyl-1-(phenylsulfonylamino)-butane” (Bioorg Med Chem Lett, 2005):
# How the values were obtained:
# [1] = biological target: C-C chemokine receptor type 5 (Homo sapiens, UniProt P51681); experiment: Inhibitory concentration against human C-C chemokine receptor type 5 in CHO cells with [125I]-MIP-1 alpha radioligand; assay type: cell-based
# [2] = system: Human immunodeficiency virus 1; experiment: Antiviral activity in an in vitro HIV replication assay; assay type: functional, organism-based
# Sequence of C-C chemokine receptor type 5 (P51681 whole entry): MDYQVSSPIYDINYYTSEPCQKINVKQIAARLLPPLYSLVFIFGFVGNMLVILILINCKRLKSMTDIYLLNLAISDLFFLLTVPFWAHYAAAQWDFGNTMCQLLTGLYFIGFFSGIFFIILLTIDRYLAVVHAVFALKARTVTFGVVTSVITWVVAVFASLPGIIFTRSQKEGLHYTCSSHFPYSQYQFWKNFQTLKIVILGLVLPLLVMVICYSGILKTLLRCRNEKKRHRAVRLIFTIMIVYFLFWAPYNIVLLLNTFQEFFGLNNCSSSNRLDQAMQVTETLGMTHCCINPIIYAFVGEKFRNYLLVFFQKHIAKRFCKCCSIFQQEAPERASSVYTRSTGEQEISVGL
Compound,IC50 [1] [nM],IC90 ([2]; Human immunodeficiency virus 1) [nM],IC90 [2] [nM]
CN(C[C@@](C)(CCN1CCC2C(CCN2C(=O)Cc2ccccc2)C1)c1ccccc1)S(=O)(=O)c1ccccc1 (mixture of isomers),6.4,111,–
"CN(CC(C)(CCN1CCC2C(CCN2C(=O)OC(C)(C)C)C1)c1ccccc1)S(=O)(=O)c1ccccc1 (single isomer, unassigned; isomer B)",2,100,–
C[C@H]1[C@@H](c2ccccc2)OC(=O)N1C1CCN(CC[C@H](CN(C)S(=O)(=O)c2ccccc2)c2ccccc2)CC1,36.7,–,–
CN(C[C@@](C)(CCN1CCC2C(CCC(=O)N2Cc2ccc([N+](=O)[O-])cc2)C1)c1ccccc1)S(=O)(=O)c1ccccc1 (mixture of isomers),5.3,333,–
CN(C[C@@](C)(CCN1CCC2NCCC2C1)c1ccccc1)S(=O)(=O)c1ccccc1 (mixture of isomers),> 2000,–,–
CN(C[C@@H](CCN1CCC2C(CCN2C(=O)OC(C)(C)C)C1)c1ccccc1)S(=O)(=O)c1ccccc1 (some centres undefined),16,–,–
"CN(CC(C)(CCN1CCC2C(CCN2C(=O)OCc2ccc([N+](=O)[O-])cc2)C1)c1ccccc1)S(=O)(=O)c1ccccc1 (single isomer, unassigned; isomer A)",21,–,300
CN(C[C@@H](CCN1CCC(N2C[C@H](c3ccccc3)OC2=O)CC1)c1ccccc1)S(=O)(=O)c1ccccc1,> 100,–,–
CN(C[C@@](C)(CCN1CCC2C(CCC(=O)N2Cc2ccccc2)C1)c1ccccc1)S(=O)(=O)c1ccccc1 (some centres undefined),10,333,–
"CN(CC(C)(CCN1CCC2C(CCN2C(=O)OC(C)(C)C)C1)c1ccccc1)S(=O)(=O)c1ccccc1 (single isomer, unassigned; isomer A)",> 2000,–,–
CN(C[C@@](C)(CCN1CCC2C(CCN2C(=O)OC(C)(C)C)C1)c1ccccc1)S(=O)(=O)c1ccccc1 (mixture of isomers),11,111,–
CN(C[C@](C)(CCN1CCC2C(CCN2C(=O)OCc2ccc([N+](=O)[O-])cc2)C1)c1ccccc1)S(=O)(=O)c1ccccc1 (mixture of isomers),3.6,111,–
CN1C(=O)CCC2CN(CC[C@](C)(CN(C)S(=O)(=O)c3ccccc3)c3ccccc3)CCC21 (mixture of isomers),28,> 300,–
C=CCN(C(=O)OCc1ccc([N+](=O)[O-])cc1)C1CCN(CC[C@](C)(CN(C)S(=O)(=O)c2ccccc2)c2ccccc2)CC1,1,3,–
CN(C[C@@](C)(CCN1CCC2C(CCN2C(=O)OCc2ccccc2)C1)c1ccccc1)S(=O)(=O)c1ccccc1 (mixture of isomers),9,> 300,–
CN(C[C@@H](CCN1CCC(N2C[C@@H](c3ccccc3)OC2=O)CC1)c1ccccc1)S(=O)(=O)c1ccccc1,31.9,–,–
"CN(CC(C)(CCN1CCC2C(CCN2C(=O)OCc2ccc([N+](=O)[O-])cc2)C1)c1ccccc1)S(=O)(=O)c1ccccc1 (single isomer, unassigned; isomer B)",2,–,33
C[C@@H]1[C@@H](c2ccccc2)OC(=O)N1C1CCN(CC[C@H](CN(C)S(=O)(=O)c2ccccc2)c2ccccc2)CC1,350,–,–
